According to US10226453B2, “3-(1H-indol-2-yl)-1H-pyrazolo[4,3-B]pyridines and therapeutic uses thereof” (Samumed, LLC, priority 2015, dated 2019):

Tested on: Wnt activity (Sp5-Luc reporter, SW480 colon carcinoma cells)
Assay: Wnt activity screening assay: Sp5-Luc reporter gene in SW480 colon carcinoma cells
Type: cell-based
Conditions: Homo sapiens; for EC50: overnight incubation, 10-point curve from 10 μM
How it was run: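 SW480 cells stably transduced with an Sp5 promoter (eight TCF/LEF sites)–firefly luciferase lentiviral reporter, plated at 4,000 cells/well in 1% FBS medium with compounds (10-point 1:3 series from 10 μM, 0.1% DMSO) overnight at 37 °C. BrightGlo luminescence normalised to DMSO; EC50 by four-parameter fit, else % inhibition at 10 μM.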

Compound	EC50	inhibition at 10 µM (given where EC50 >10 μM, 10 μM, read-out: percent inhibition at 10 μM)
CN(C)CCNc1cc(F)cc(-c2cccc3[nH]c(-c4n[nH]c5ccc(-c6ccccn6)nc45)cc23)c1 [Compound 476, N^1-(3-Fluoro-5-(2-(5-(pyridin-2-yl)-1H-pyrazolo[4,3-b]pyridin-3-yl)-1H-indol-4-yl)phenyl)-N^2,N^2-dimethylethane-1,2-diamine]	4620 nM	–
Cc1ccncc1-c1ccc2[nH]nc(-c3cc4c(-c5cc(F)cc(CNS(C)(=O)=O)c5)cccc4[nH]3)c2n1 [Compound 481, N-(3-Fluoro-5-(2-(5-(4-methylpyridin-3-yl)-1H-pyrazolo[4,3-b]pyridin-3-yl)-1H-indol-4-yl)benzyl)methanesulfonamide]	162 nM	–
Nc1cncc(-c2ccc3[nH]nc(-c4cc5ncccc5[nH]4)c3n2)c1 [Compound 507, 5-(3-(1H-Pyrrolo[3,2-b]pyridin-2-yl)-1H-pyrazolo[4,3-b]pyridin-5-yl) pyridin-3-amine]	256 nM	–
Fc1cccc(-c2cccc3[nH]c(-c4n[nH]c5ccc(-c6cncc(OCc7ccccc7)c6)nc45)cc23)c1 [Compound 546, 5-(5-(Benzyloxy)pyridin-3-yl)-3-(4-(3-fluorophenyl)-1H-indol-2-yl)-1H-pyrazolo[4,3-b]pyridine]	2660 nM	–
c1cc(-c2ccncc2)c2cc(-c3n[nH]c4ccc(-c5cncc(OCCN6CCCC6)c5)nc34)[nH]c2c1 [Compound 606, 3-(4-(Pyridin-4-yl)-1H-indol-2-yl)-5-(5-(2-(pyrrolidin-1-yl)ethoxy)pyridin-3-yl)-1H-pyrazolo[4,3-b]pyridine]	4990 nM	–
c1cc(-c2ccoc2)c2cc(-c3n[nH]c4ccc(-c5cn[nH]c5)nc34)[nH]c2c1 [Compound 711, 3-(4-(Furan-3-yl)-1H-indol-2-yl)-5-(1H-pyrazol-4-yl)-1H-pyrazolo[4,3-b] pyridine]	8160 nM	–
c1cc(-c2ccoc2)c2cc(-c3n[nH]c4ccc(-c5cncc(OC6CCCCC6)c5)nc34)[nH]c2c1 [Compound 715, 5-(5-(Cyclohexyloxy)pyridin-3-yl)-3-(4-(furan-3-yl)-1H-indol-2-yl)-1H-pyrazolo[4,3-b]pyridine]	6490 nM	–
c1cnc2cc(-c3n[nH]c4ccc(-c5cn[nH]c5)nc34)[nH]c2c1 [Compound 1021, 5-(1H-Pyrazol-4-yl)-3-(1H-pyrrolo[3,2-b]pyridin-2-yl)-1H-pyrazolo[4,3-b] pyridine]	767 nM	–

The next lines start with results.

EC50	Compound	inhibition at 10 µM (given where EC50 >10 μM, 10 μM, read-out: percent inhibition at 10 μM)
239 nM	CN(C)CCNc1cc(F)cc(-c2cccc3[nH]c(-c4n[nH]c5ccc(-c6cccnc6)nc45)cc23)c1 [Compound 452, N^1-(3-Fluoro-5-(2-(5-(pyridin-3-yl)-1H-pyrazolo[4,3-b]pyridin-3-yl)-1H-indol-4-yl)phenyl)-N^2,N^2-dimethylethane-1,2-diamine]	–
1390 nM	CN(C)CCNc1cc(F)cc(-c2cccc3[nH]c(-c4n[nH]c5ccc(-c6cncc(CN7CCCCC7)c6)nc45)cc23)c1 [Compound 463, N^1-(3-Fluoro-5-(2-(5-(5-(piperidin-1-ylmethyl)pyridin-3-yl)-1H-pyrazolo [4,3-b]pyridin-3-yl)-1H-indol-4-yl)phenyl)-N^2,N^2-dimethylethane-1,2-diamine]	–
498 nM	CN(C)CCNc1cc(F)cc(-c2cccc3[nH]c(-c4n[nH]c5ccc(-c6cncnc6)nc45)cc23)c1 [Compound 475, N^1-(3-Fluoro-5-(2-(5-(pyrimidin-5-yl)-1H-pyrazolo[4,3-b]pyridin-3-yl)-1H-indol-4-yl)phenyl)-N^2,N^2-dimethylylethane-1,2-diamine]	–
1600 nM	O=C(CC1CCNCC1)Nc1cncc(-c2ccc3[nH]nc(-c4cc5c(-c6ccccn6)cccc5[nH]4)c3n2)c1 [Compound 621, 2-(Piperidin-4-yl)-N-(5-(3-(4-(pyridin-2-yl)-1H-indol-2-yl)-1H-pyrazolo[4,3-b]pyridin-5-yl)pyridin-3-yl)acetamide]	–
2390 nM	c1cc(N2CCCCC2)c2cc(-c3n[nH]c4ccc(-c5cncc(OC6CCNCC6)c5)nc34)[nH]c2c1 [Compound 636, 3-(4-(Piperidin-1-yl)-1H-indol-2-yl)-5-(5-(piperidin-4-yloxy)pyridin-3-yl)-1H-pyrazolo[4,3-b]pyridine]	–
> 10000 nM	Oc1cncc(-c2ccc3[nH]nc(-c4cc5c(-c6cccs6)cccc5[nH]4)c3n2)c1 [Compound 737, 5-(3-(4-(Thiophen-2-yl)-1H-indol-2-yl)-1H-pyrazolo[4,3-b]pyridin-5-yl) pyridin-3-ol]	3.3%
883 nM	Oc1cncc(-c2ccc3[nH]nc(-c4cc5ncccc5[nH]4)c3n2)c1 [Compound 1031, 5-(3-(1H-Pyrrolo[3,2-b]pyridin-2-yl)-1H-pyrazolo[4,3-b]pyridin-5-yl) pyridin-3-ol]	–
